Measured values from ChEMBL document CHEMBL4138268, “Discovery of Spiro Oxazolidinediones as Selective, Orally Bioavailable Inhibitors of p300/CBP Histone Acetyltransferases” (ACS Med Chem Lett, 2018).

How the values were obtained:
[1] = target: CREB-binding protein/Histone acetyltransferase p300 (Homo sapiens, UniProt Q09472+Q92793); experiment: Inhibition of p300/CBP (unknown origin) using biotinylated synthetic Histone H4 Peptide as substrate pretreated for 30 mins followed by substrate addition measured after 1 hr by radiometric scintillation proximity assay; format: protein assay
[2] = Permeability of the compound by PAMPA; format: ADME
[3] = Clearance in mouse microsomes; format: ADME, Microsome
[4] = Unbound fraction in human microsomes; format: ADME, Microsome
[5] = Unbound intrinsic clearance in mouse microsomes; format: ADME, Microsome
Mus musculus [6] = experiment: Plasma clearance in mouse at 1 mg/kg, iv; format: ADME, organism-based; conditions: in vivo
[7] = Protein binding in mouse plasma; format: ADME, cell-free
Mus musculus [8] = species: Mus musculus; experiment: Unbound plasma clearance in mouse; format: ADME, organism-based; conditions: in vivo
[9] = Oral bioavailability in mouse; format: ADME, organism-based; conditions: in vivo
[10] = AUC in mouse at 10 mg/kg, po; format: ADME, organism-based; conditions: in vivo

CC(C1CC1)N(Cc1ccccc1)C(=O)CN1C(=O)NC(Cc2c[nH]c3ccccc23)C1=O (stereo not drawn)
IC50 [1]: 5.1 µM

C[C@@H](C1CC1)N(Cc1ccccc1)C(=O)CN1C(=O)NC(c2ccccc2)C1=O (stereo partly drawn)
IC50 [1]: 7.6 µM

CNC(=O)Nc1ccc2c(c1)CC[C@@]21OC(=O)N(CC(=O)N(Cc2ccccc2)[C@@H](C)C2CC2)C1=O
permeability [2]: 2.35 ×10⁻⁶ cm/s | CLint scaled [3]: 1780 mL/min/kg | Fu [4]: 0.48 | CL free [5]: 3130 mL/min/kg | CL (Mus musculus [6]): 27 mL/min/kg | PPB [7]: 99.1% | CL free (Mus musculus [8]): 3100 mL/min/kg | bioavailability [9]: 40% | AUC [10]: 2500 ng·h/mL

CNC(=O)Nc1ccc2c(c1)CC[C@]21NC(=O)N(CC(=O)N(Cc2ccccc2)[C@@H](C)C2CC2)C1=O
permeability [2]: 0.47 ×10⁻⁶ cm/s

Cc1ccccc1C1NC(=O)N(CC(=O)N(Cc2ccccc2)[C@@H](C)C2CC2)C1=O (stereo partly drawn)
IC50 [1]: 2.7 µM
